Assay [1] has as its system HSV-1. Description: Cytopathic effect inhibition assay, HSV-1. It is filed as cell-based. The following applies: Human alphaherpesvirus 1; Table 19; read-out: EC50 HSV-1 CPE. The protocol: (§1) Newborn human foreskin were obtained as soon as possible after circumcisions were performed and placed in minimal essential medium (MEM) containing vacomycin, fungizone, penicillin, and gentamycin, at the usual concentrations, for four hours. The medium was then removed, the foreskin minced into small pieces and washed repeatedly until red cells were no longer present. The tissue was then trypsinized using trypsin at 0.25% with continuous stirring for 15 minutes at 37°C in a CO2 incubator. At the end of each 15 minute period, the tissue was allowed to settle to the bottom of the flask. The supernatant containing cells was poured through sterile cheesecloth into a flask containing MEM and 10% fetal bovine serum. The flask containing the medium was kept on ice through out the trypsinizing procedure. After each addition of cells, the cheesecloth was washed with a small amount of MEM containing serum. Fresh trypsin was added each time to the foreskin pieces and the procedure repeated until no more cells became available. The cell containing medium was then centrifuged at 1000 RPM at 4°C for ten minutes. The supernatant liquid was discarded and the cells resuspended in a small amount of MEM with 10% FBS. The cells were then placed in an appropriate number of 25 cm^2 tissue culture flasks. As cells became confluent and needed trypsinization, they were gradually expanded into larger flasks. […]
A general note: Damage to the host cells serves as the signal in cytopathic effect assays.

The next assay relates to HSV-2. Description: Cytopathic effect inhibition assay, HSV-2. To be noted: Human alphaherpesvirus 2; Table 19; read-out: EC50 HSV-2 CPE. The class given is cell-based. How it is done: as §1
Assay [2] relates to HSV-1. Description: Plaque reduction assay, HSV-1. The class given is cell-based. To be noted: Human alphaherpesvirus 1; Table 19. The protocol:
Two days prior to use, HFF cells are plated into six well plates and incubated at 37°C with 5% CO2 and 90% humidity. On the date of assay, the drug is made up at twice the desired concentration in 2X MEM and then serially diluted 1:5 in 2X MEM using six concentrations of drug. The initial starting concentration isusually 200 µg/ml down to 0.06 µg/ml. The virus to be used is diluted in MEM containing 10% FBS to a desired concentration which will give 20 - 30 plaques per well. […] The plates are then incubated for one hour with shaking every fifteen minutes. After the incubation period, an equal amount of 1% agarose was added to an equal volume of each drug dilution. This will give final drug concentrations beginning with 100 µg/ml and ending with 0.03 µg/ml and a final agarose overlay concentration of 0.5%. […] At the end of 4-6 hr incubation period, the stain is aspirated, and plaques counted using a stereomicroscope at 10X magnification. The procedure for the liquid overlay plaque assay is similar to that using the agarose overlay. The procedure for adding the virus is the same as for the regular plaque assay. The drugs are made up in a concentration to be used in MEM with 2% FBS. […] For CMV and VZV, no antibody in the overlay is utilized. For the CMV assay, additional medium without new drug is added on day six and allowed to incubate for a total of 11 days. […]
Background: In a plaque reduction assay, fewer plaques than in the control indicate reduced infectivity or spread.

Another assay concerns VZV. Description: Plaque reduction assay, VZV. It is filed as cell-based. Set-up: EC50 VZV Plaque: unit not given beside the values. How it is done: Two days prior to use, HFF cells are plated into six well plates and incubated at 37°C with 5% CO2 and 90% humidity. On the date of assay, the drug is made up at twice the desired concentration in 2X MEM and then serially diluted 1:5 in 2X MEM using six concentrations of drug. The initial starting concentration isusually 200 µg/ml down to 0.06 µg/ml. The virus to be used is diluted in MEM containing 10% FBS to a desired concentration which will give 20 - 30 plaques per well. […] The plates are then incubated for one hour with shaking every fifteen minutes. After the incubation period, an equal amount of 1% agarose was added to an equal volume of each drug dilution. This will give final drug concentrations beginning with 100 µg/ml and ending with 0.03 µg/ml and a final agarose overlay concentration of 0.5%. […] At the end of 4-6 hr incubation period, the stain is aspirated, and plaques counted using a stereomicroscope at 10X magnification. […] After addition of the drug, the plates are incubated for ten days. • 2. On days three and six an additional 1 ml overlay with equal amounts of 2X MEM and 1% agarose are added. The procedure for the liquid overlay plaque assay is similar to that using the agarose overlay. The procedure for adding the virus is the same as for the regular plaque assay. The drugs are made up in a concentration to be used in MEM with 2% FBS. […]

The next assay concerns EBV. Description: EBV screening test (IMN). It is filed as cell-based. To be noted: human gammaherpesvirus 4, Table 19.
Another assay deals with HSV-2 strain 186. Description: Mouse genital HSV-2 model, intravaginal prophylaxis. The class given is in vivo, Swiss Webster mice. The following applies: Table 21; for Virus Isolated / Dead: 2% intravaginal, one treatment just prior to HSV-2 challenge, 15 mice; for Virus Isolated: number of animals; for Dead: observed to day 21 PI. The protocol: Sixty female Swiss Webster mice pretreated with medroxyprogesterone acetate were randomized to four groups of 15 to receive either Saline (control), 2 % Acyclovir, 2 % Compound 96, or 0.5% Compound 96. Animals were anesthetized by intraperitoneal injection of sodium pentabarbital and then administered 15 µl of control or test compound intravaginally in one treatment. They were then immediately challenged by intravaginal instillation with 15 µl of a suspension containing 10^4 plaque forming units HSV-2 strain 186. Vaginal swabs were collected on days 1 and 2 post-inoculation (PI) to assess the effect of treatment on vaginal replication in the genital tract. In addition, all animals were examined daily until day 21 PI for mortality and signs of infection (erythema, hair loss and hind limb paralysis).

The test system of assay [3] is HCMV. To be noted: Table 19. The protocol:
as §1

The subject of assay [4] is HCMV. Description: Plaque reduction assay, HCMV. The following applies: Human betaherpesvirus 5, Table 19. The class given is cell-based. The protocol: Two days prior to use, HFF cells are plated into six well plates and incubated at 37°C with 5% CO2 and 90% humidity. On the date of assay, the drug is made up at twice the desired concentration in 2X MEM and then serially diluted 1:5 in 2X MEM using six concentrations of drug. The initial starting concentration isusually 200 µg/ml down to 0.06 µg/ml. The virus to be used is diluted in MEM containing 10% FBS to a desired concentration which will give 20 - 30 plaques per well. The media is then aspirated from the wells and 0.2 ml of virus is added to drug toxicity wells. The plates are then incubated for one hour with shaking every fifteen minutes. After the incubation period, an equal amount of 1% agarose was added to an equal volume of each drug dilution. This will give final drug concentrations beginning with 100 µg/ml and ending with 0.03 µg/ml and a final agarose overlay concentration of 0.5%. The drug agarose mixture is applied to each well in 2 ml volume and the plates then incubated for three days, after which the cells were stained with a 1.5 % solution of neutral red. At the end of 4-6 hr incubation period, the stain is aspirated, and plaques counted using a stereomicroscope at 10X magnification.
The procedure is essentially the same as for HSV analysis with the following minor changes. […]

The subject of the next assay is HFF cells. Description: Cell proliferation assay. The class given is cell-based, human. To be noted: Table 20; RAPIDLY GROWING CELLS. How it is done: On the day of the assay, drugs are diluted serially in MEM containing 10% FBS at increments of 1:5 covering a range from 100 μg/ml to 0.03 μg/ml. For drugs that have to be solubilized in DMSO, control wells […] MEM containing 10% DMSO. The media from the wells is then aspirated and 2 ml of each drug concentration is then added to each well. The cells are then incubated in a CO2 incubator at 37°C for 72 hours. At the end of this time, the media-drug solution is removed and the cells washed. […] The cell-media mixture is then pipetted up and down vigorously to break up the cell suspension and 0.2 ml of the mixture is added to 9.8 ml of Isoton III and counted using a Coulter Counter. Each sample is counted three times with three replicate wells per sample.

The mark [5] stands for this setting: 2%, mean log10 viral titers ± SEM, infected animals only.

Converted amounts (≈) assume the structure as drawn. “And” between values parts separate entries of the source, which are not always exact repeats. Equal entries are not always repeated.

In general, EC50 refers to the concentration needed to bring the measured effect to its halfway point. On to `Nc1nc2c(ncn2COCCO)c(=O)[nH]1` [Acyclovir], for which the EC50 in the assay with HSV-1 [1] is 0.2 µg/mL (≈ 0.888 µM); in the assay with HSV-2, 0.7 µg/mL (≈ 3.11 µM); with HSV-1 [2], 0.2 µg/mL (≈ 0.888 µM); with VZV (Human alphaherpesvirus 3, Table 19) it was 3.2 µg/mL (≈ 14.2 µM); in the assay with EBV it was 6 µg/mL (≈ 26.6 µM). Besides, the “EC50 VZV Plaque” value in the assay on VZV (Table 19, listed as ACV) was 4.4 and 3.1 and 3.0. The entries for the “Virus Isolated” value in the assay on HSV-2 strain 186 and in the assay with HSV-2 strain 186 (listed as acyclovir) were 12 and 12/15, respectively. Besides, the results for the Dead in the assay on HSV-2 strain 186 and in the assay with HSV-2 strain 186 (listed as acyclovir) were 12 and 12/15, respectively. In the assay on HSV-2 strain 186 (setting [5]), the “Vaginal Virus Titer Day 1” value is reported as 1.96 ± 0.38 log10. Besides, the “Vaginal Virus Titer Day 2” value with HSV-2 strain 186 (setting [5]) came out at 3.82 ± 0.38 log10.

In the assay on HCMV [3], `Nc1nc2c(ncn2COC(CO)CO)c(=O)[nH]1` [DHPG] had an EC50 HCMV CPE of 0.8 µg/mL (≈ 3.13 µM). The same compound showed an EC50 in the assay with HCMV [4] of 0.7 µg/mL (≈ 2.74 µM).

Consider `O=c1[nH]c(=O)n([C@@H]2O[C@H](CO)[C@@H](O)[C@@H]2F)cc1I` [FIAU, 2'-fluoro-5-iodo-arabinosyl-uracil], for which the “TOXICITY ASSAYS - IC50 CELL PROLIFERATION” value in the assay with HFF cells was 3.3 MCG/ML and 8.4 MCG/ML.
